Test results from patent US7776913B2, “Carnitines for treating or preventing disorders caused by andropause” (Sigma-Tau Industrie Farmaceutiche Riunite S.p.A., priority 2002, dated 2010).

What was measured:
[1] = test system: Patients aged over 60 years with lowered blood concentrations of free and total testosterone; assay: Blood prolactin levels; assay type: in vivo, human; set-up: unit not given here; settings: mean ± SD
Source text: (§1) Reported here below is a clinical trial conducted in order to evaluate the activity of the combination according to the association in the treatment of the symptoms of male ageing.
(§2) Patients aged over 60 years with lowered blood concentrations of free and total testosterone (The Aging Male 4: 151-162, 2001) and complaining of symptoms figuring in the working definition of andropause proposed by the International Society for the Study of the Aging Male (I.S.S.A.M.) (The Aging Male 4: 151-162, 2001): reduced libido or sex drive and erectile function, depressed mood, difficulty concentrating, irritability and fatigue.
(§3) The above-mentioned compounds were presented to the patients in anonymous containers and administered for 6 months.
Medical history-taking and physical examinations were done for all patients. The following data were also collected prior to the start of treatment, after 1, 3 and 6 months of treatment: • 1. Total blood prostate-specific antigen (PSA) (ng/ml) as measured with the automatic test and monoclonal antibodies [Rigatti P., Scattoni V.: PSA: Antigene prostatico specifico. Edizioni Medico Scientifiche (EDIMES) Pavia, 1997]. • 2. Prostate volume (cm^3) as measured by suprapubic ultrasonography and calculated by means of the three diameters rule [Rigatti P. Scattoni V.: PSA: Antigene prostatico specifico. […] Peak systolic volume (PSV) (cm/sec), end-diastolic velocity (EDV) (cm/sec), and Resistance Index (RI) (%) of the penile arteries (right and left cavernous e dorsal) as measured by means of penile basal and dynamic colour Doppler ultrasonography. RI was calculated as follows: (PSV-EDV/EDV)×100 (Urology 1997: 49: 822-830). • 4. […] A score was calculated for each patient. • 7. Depression was quantified by means of the Hamilton Depression Scale questionnaire (DMS III) (Cancer 94: 2481-2489, 2002). A score was calculated for each patient. • 8. The subjective sensation of fatigue was calculated using the fatigue scale (Lison L.: Statistica applicata alla biologia sperimentale. Milano: Casa Editrice Ambrosiana, 1972). A score was calculated for each patient. • 9. […]

[2] = test system: Patients aged over 60 years with lowered blood concentrations of free and total testosterone; assay: International Index of Erectile Function questionnaire (IIEF-15); assay type: in vivo, human; settings: for IIEF-15 Erectile Function section score / IIEF-15 General Satisfaction section score (Table 18 title) / IIEF-15 Intercourse Satisfaction section score / IIEF-15 Orgasmic Function section score (Table 17 title) / IIEF-15 Sexual Desire section score: mean ± SD
Source text: as §1, §2, §3
(§4) Medical history-taking and physical examinations were done for all patients. The following data were also collected prior to the start of treatment, after 1, 3 and 6 months of treatment: • 1. Total blood prostate-specific antigen (PSA) (ng/ml) as measured with the automatic test and monoclonal antibodies [Rigatti P., Scattoni V.: PSA: Antigene prostatico specifico. Edizioni Medico Scientifiche (EDIMES) Pavia, 1997]. • 2. Prostate volume (cm^3) as measured by suprapubic ultrasonography and calculated by means of the three diameters rule [Rigatti P. Scattoni V.: PSA: Antigene prostatico specifico. Edizioni Medico Scientifiche (EDIMES) Pavia, 1997]. • 3. Peak systolic volume (PSV) (cm/sec), end-diastolic velocity (EDV) (cm/sec), and Resistance Index (RI) (%) of the penile arteries (right and left cavernous e dorsal) as measured by means of penile basal and dynamic colour Doppler ultrasonography. RI was calculated as follows: (PSV-EDV/EDV)×100 (Urology 1997: 49: 822-830). • 4. Duration of full erections (in minutes) in the course of a recording period of three nights performed with Rigiscan. […] Free and total blood testosterone, LH and prolactin levels (The Aging Male 4: 151-162, 2001). • 6. Sexual function was checked by means of semistructured interviews and administration of the International Index of Erectile Function (IIEF-15) (Urology 1997: 49: 822-830). A score was calculated for each patient. • 7. Depression was quantified by means of the Hamilton Depression Scale questionnaire (DMS III) (Cancer 94: 2481-2489, 2002). A score was calculated for each patient. • 8. The subjective sensation of fatigue was calculated using the fatigue scale (Lison L.: Statistica applicata alla biologia sperimentale. Milano: Casa Editrice Ambrosiana, 1972). A score was calculated for each patient. • 9. Side effects.
(§5) Blood concentrations of PSA, free and total testosterone, prolactin LH, prostate volume, PSV, EDV, RI, full erection duration, IIEF-15, DMS III, and fatigue scale scores were compared between and within groups by means of factorial analysis of variance for randomised blocks (1 patient=1 block). Comparison of the mean values was done on the raw data with the exclusion of RI which used data subjected to angular transformation (sin^−1 √P/100) for the comparisons. Side effects were compared using the chi-square etst (Lison L.: Statistica applicata alla biologia sperimentale. Milano: Casa Editrice Ambrosiana, 1972).

[3] = test system: Patients aged over 60 years with lowered blood concentrations of free and total testosterone; assay: Hamilton Depression Scale questionnaire (DMS III); assay type: in vivo, human; settings: for Hamilton Depression Scale questionnaire (DMS III) score: mean ± SD
Source text: as §1, §2, §3, §4, §5

[4] = test system: Patients aged over 60 years with lowered blood concentrations of free and total testosterone; assay: Fatigue scale; assay type: in vivo, human; settings: for Fatigue scale score: mean ± SD
Source text: as §1, §2, §3, §4, §5

[5] = test system: Patients aged over 60 years with lowered blood concentrations of free and total testosterone; assay: Clinical trial overall: andropause symptoms and pathological changes of the cervico-urethral district; assay type: in vivo, human; settings: unlike placebo
Source text: as §1
as §2, with “fatigue. […]” for “fatigue.”
Medical history-taking and physical examinations were done for all patients. […] Total blood prostate-specific antigen (PSA) (ng/ml) as measured with the automatic test and monoclonal antibodies [Rigatti P., Scattoni V.: PSA: Antigene prostatico specifico. […] Prostate volume (cm^3) as measured by suprapubic ultrasonography and calculated by means of the three diameters rule [Rigatti P. Scattoni V.: PSA: Antigene prostatico specifico. […] Peak systolic volume (PSV) (cm/sec), end-diastolic velocity (EDV) (cm/sec), and Resistance Index (RI) (%) of the penile arteries (right and left cavernous e dorsal) as measured by means of penile basal and dynamic colour Doppler ultrasonography. RI was calculated as follows: (PSV-EDV/EDV)×100 (Urology 1997: 49: 822-830). • 4. […]

[6] = test system: patients in the andropause; settings: 40×2 mg/day; cited from earlier work

testosterone undecaonate
Prolactin ([1]; 6 months of therapy): 7.3 ± 1.8 | Prolactin ([1]; before therapy): 7.7 ± 1.6 | IIEF-15 Erectile Function section score ([2]; 3 months of therapy): 16.7 ± 3.7 | IIEF-15 General Satisfaction section score (Table 18 title) ([2]; 3 months of therapy): 3.7 ± 1.1 | IIEF-15 Intercourse Satisfaction section score ([2]; 3 months of therapy): 4.8 ± 0.8 | IIEF-15 Orgasmic Function section score (Table 17 title) ([2]; 3 months of therapy): 3.9 ± 0.9 | IIEF-15 Sexual Desire section score ([2]; 3 months of therapy): 5.7 ± 0.8 | IIEF-15 Erectile Function section score ([2]; 6 months of therapy): 20.2 ± 5.3 | IIEF-15 General Satisfaction section score (Table 18 title) ([2]; 6 months of therapy): 4.4 ± 2.2 | IIEF-15 Intercourse Satisfaction section score ([2]; 6 months of therapy): 5.8 ± 1.9 | IIEF-15 Orgasmic Function section score (Table 17 title) ([2]; 6 months of therapy): 4.7 ± 1.8 | IIEF-15 Sexual Desire section score ([2]; 6 months of therapy): 7.1 ± 0.9 | Intercourse satisfaction (in words) ([2]; IIEF-15, Table 15): significantly increased | Sexual desire (in words) ([2]; IIEF-15, Table 16): significantly increased | Change in IIEF-15 Orgasmic Function scores (Table 18) ([2]; at 3 months, F=12.6, P<0.01): significantly increased | IIEF-15 Erectile Function section score ([2]; before therapy): 13.8 ± 2.7 | IIEF-15 General Satisfaction section score (Table 18 title) ([2]; before therapy): 3.2 ± 0.6 | IIEF-15 Intercourse Satisfaction section score ([2]; before therapy): 4.1 ± 0.8 | IIEF-15 Orgasmic Function section score (Table 17 title) ([2]; before therapy): 3.2 ± 1.2 | IIEF-15 Sexual Desire section score ([2]; before therapy): 4.3 ± 1.0 | Change in IIEF-15 Erectile Function scores (in words) ([2]; both at 3 months and 6 months): significant increase | Erectile activity (in words) ([2]; conclusion from Table 14): significantly increase | Change in IIEF-15 General Satisfaction scores (text on Table 17) ([2]; time not stated): failed to induce any significant changes | Hamilton Depression Scale questionnaire (DMS III) score ([3]; 3 months of therapy): 5.8 ± 0.7 | Hamilton Depression Scale questionnaire (DMS III) score ([3]; 6 months of therapy): 5.1 ± 1.3 | Change in DMS III scores (in words) ([3]; at 3 months, F=4.07, P<0.05): significant decrease | Significant decrease in DMS III scores (in words) ([3]; at 6 months, F=2.5, P=n.s.): but not at 6 months | DMS III score compared between groups ([3]; at 6 months, comparison with placebo (and testosterone)): No significant difference | Hamilton Depression Scale questionnaire (DMS III) score ([3]; before therapy): 6.6 ± 1.0 | Fatigue scale score ([4]; 3 months of therapy): 1.1 ± 1.0 | Fatigue scale score ([4]; 6 months of therapy): 0.6 ± 0.4 | Change in fatigue scale score (in words) ([4]; at 3 months, F=33.6, P<0.01): statistically significant increase | Change in fatigue scale score (in words) ([4]; at 6 months, F=5.9, P=n.s.): no significant increase | Fatigue scale score ([4]; before therapy): 2.8 ± 1.3 | Activity in increasing the sensation of general well-being, comparison ([4]; conclusion from Table 20): significantly more active than placebo | Effect on the symptoms of andropause [5]: capable of attenuating | Benefit in patients in the andropause [6]: fair amount of benefit
